One assay relates to C2C12 Cells. Briefly: Glucose utilization in cultured C2C12 cells (myotubes). The note with it: glucose concentration in medium relative to untreated cells; 5 μM peptide, 22 h. Type of assay: cell-based, mouse. How it is done:
The effect of the peptides on glucose homeostasis can be assessed using an assay to monitor glucose utilization by cultured cells such as mouse myotubes. Peptide arrays were initially prepared as 5 mM stock in DMSO and diluted to 0.5 mM in H2O; peptides were used at a final concentration of 5 μM (0.1% DMSO). Calculations for peptide concentrations based on approximate molecular weight of 2000 Daltons. C2C12 mouse muscle cell line was purchased from Millipore Sigma (Saint Louis, Mo.). C2C12 cells were seeded in standard medium (DMEM/low glucose (1 g/L)+10% Fetal Bovine Serum+antibiotics) at 7,500 cells/well on 96-well plates and grown to confluence at 37° C. in a humidified atmosphere of 5% CO2/95% air. Three days after plating the medium was removed and with Differentiation Medium (DMEM/low glucose (1 g/L)+2% Horse Serum+antibiotics) added. The cultures were placed at 37° C. in a humidified atmosphere of 5% CO2/95% air for 5 days with partially replacement of medium daily. After 5 days of differentiation, the medium was removed from myotube cultures and replaced with Assay Medium (DMEM/low glucose (1 g/L)+antibiotics). Culture were placed at 37° C. in a humidified atmosphere of 5% CO2/95% air for 5 h. Following the 5 h incubation the medium was removed and fresh Assay Medium containing compounds was added; 5 μM peptide or 1 mM metformin as a potent stimulator of glucose utilization. Cells were incubated for 22 h at 37° C. in a humidified atmosphere of 5% CO2/95% air. Following 22 h incubation, conditioned medium from each well was transferred to a fresh 96-well plate. Glucose concentrations in the medium were determined using a Glucose Assay kit (Abcam; Cambridge, Mass.) according to the manufacturer's instructions; absorbance measured using a Cytation 3 plate reader at 570 nm (BioTek, Winooski, Vt.). Untreated cells were used as reference for basal glucose utilization. Absorbance values were expressed as percent control activity relative to untreated treated cells for 5 μM peptide. The relative standard deviation from plate to plate of untreated control was <10%. […] Data presented are representative values from 2-3 independent experiments with each data point performed in triplicate in each independent experiment.

The test system of another assay is H4-IIE Cells. Briefly: Glucose production in cultured H4-IIE cells. It counts as cell-based, rat. The note with it: glucose concentration in medium relative to untreated cells; 5 μM peptide, 24 h. How it is done: The effect of the peptides on glucose homeostasis can be assessed using an assay to monitor glucose production by cultured cells such as rat hepatocytes. Peptide arrays were initially prepared as 5 mM stock in DMSO and diluted to 0.5 mM in H2O; peptides were used at a final concentration of 5 μM (0.1% DMSO). Calculations for peptide concentrations based on approximate molecular weight of 2000 Daltons. H4-IIE rat hepatic cell line was purchased from American Type Culture Collection (Manassas, Va.). H4-IIE cells were seeded in standard medium (DMEM/high glucose+10% Fetal Bovine Serum+antibiotics) at 100,000 cells/well on 96-well plates and allowed to adhere overnight at 37° C. in a humidified atmosphere of 5% CO2/95% air. 24 h after seeding, the medium was removed, cells were rinsed with glucose free DMEM, and the medium replaced with Glucose Production Medium (glucose free DMEM+2 mM sodium pyruvate+10 mM sodium lactate+antibiotics). The cultures were placed at 37° C. in a humidified atmosphere of 5% CO2/95% air overnight. The next morning, the medium was removed and fresh Glucose Production Medium containing compounds was added; 5 uM peptide or 0.5-1 nM insulin as a potent inhibitor of glucose production. Cells were incubated for 24 h at 37° C. in a humidified atmosphere of 5% CO2/95% air. Following 24 h incubation, conditioned medium from each well was transferred to a fresh 96-well plate. Glucose concentrations in the medium were determined using a Glucose Assay kit (Abcam; Cambridge, Mass.) according to the manufacturer's instructions; absorbance measured using a Cytation 3 plate reader at 570 nm (BioTek, Winooski, Vt.). Untreated cells were used as reference for maximal glucose production. Absorbance values were expressed as percent control activity relative to untreated treated cells for 5 μM peptide. The relative standard deviation from plate to plate of untreated control was <25%. […] Glucose levels for 0.5-1 nM insulin treatment were <5% of the untreated control value. Data are presented as representative values from 2-3 independent experiments with each data point performed in triplicate in each independent experiment.

In another assay the test system is 3T3-L1 Mouse Adipocytes. Briefly: Free fatty acid levels in cultured 3T3-L1 mouse adipocytes (isoproterenol stimulated). Type of assay: cell-based. The conditions noted are these: free fatty acid in medium; 5 μM peptide, 20-22 h pre-incubation then 3 h with 0.1 nM isoproterenol; isoproterenol alone = 100%. The procedure:
The effect of the peptides on fatty acid metabolism can be assessed using an assay to monitor free fatty acid levels produced by cultured cells such as mouse adipocytes. Peptide arrays were initially prepared as 5 mM stock in DMSO and diluted to 0.5 mM in H2O; peptides were used at a final concentration of 5 μM (0.1% DMSO). Calculations for peptide concentrations based on approximate molecular weight of 2000 Daltons. […] Mouse 3T3-L1 cells purchased from ZenBio (Research Triangle Park, NC) were seeded at 3,000 cells per well in 96-well plates in Pre-adipocyte Medium (Zen-Bio) and grown to confluence at 37° C. in a humidified atmosphere of 5% CO2/95% air. Two days after confluence, cells were placed in Adipocyte Differentiation Medium (Zen-Bio) and cultured for three additional days at 37° C. in a humidified atmosphere of 5% CO2/95% air. The culture medium was then replaced with Adipocyte Maintenance Medium (Zen-Bio) and the cells maintained for an additional 9 days at 37° C. in a humidified atmosphere of 5% CO2/95% air with partial medium replacement every other day. Following 12 days of differentiation, medium was replaced Adipocyte Maintenance Medium without insulin and the cultures placed at 37° C. in a humidified atmosphere of 5% CO2/95% air. On day 13 of differentiation, test peptides were added directly to each well (without replacing the medium) at a final concentration of 5 μM in 0.1% DMSO and incubated for 20-22 hours at 37° C. in a humidified atmosphere of 5% CO2/95% air. […] Cells were incubated for 3 hours in Assay Buffer (Zen-Bio) at 37° C. in a humidified atmosphere of 5% CO2/95% air. Following 3 h incubation, conditioned medium from each well was transferred to a fresh 96-well plate. Free fatty acid concentrations in the medium were determined using a Free Fatty Acid Assay kit (Zen-Bio) according to the manufacturer's instructions; absorbance was measured using a Cytation 3 plate reader at 540 nm (BioTek, Winooski, Vt.). Treatment with 0.1 nM isoproterenol alone was used as the free fatty acid level stimulatory control. Absorbance values were expressed as percent control activity relative to 0.1 nM isoproterenol alone treated cells, 100%. The relative standard deviation of the isoproterenol control was <10%. Insulin at 0.25 nM was used as a potent control for decreasing free fatty acid levels. […] Data presented are representative values from 2 independent experiments with each data point performed in triplicate in each independent experiment.

Regarding 30 (MGEGLEENPTNPITKPTLN) [compound 30], the “Percent of Control Activity” value in the assay on C2C12 Cells and in the assay with H4-IIE Cells was 102% throughout. Moreover, the “Percent of Isoproterenol Control Activity” value in the assay with 3T3-L1 Mouse Adipocytes came to 98%.

Take 31 (MGEVGLLWLGRI) [compound 31]: the “Percent of Control Activity” value in the assay on C2C12 Cells is recorded as 107%; in the assay on H4-IIE Cells it was 101%. In the assay with 3T3-L1 Mouse Adipocytes, the “Percent of Isoproterenol Control Activity” value is listed as 78%.

Regarding 32 (MGGEWGMGVWTWGCFLVWM) [compound 32], the “Percent of Control Activity” value in the assay with C2C12 Cells was 108%; in the assay with H4-IIE Cells, 100%. Also, in the assay on 3T3-L1 Mouse Adipocytes, the “Percent of Isoproterenol Control Activity” value came to 94%.

With 33 (MGGGVLLGLQ) [compound 33], the “Percent of Control Activity” value amounted to 111% in the assay with C2C12 Cells and 100% in the assay on H4-IIE Cells. Besides, in the assay with 3T3-L1 Mouse Adipocytes, the “Percent of Isoproterenol Control Activity” value was 103%.

35 (MGGRWGLGWWRAG) [compound 35]: the “Percent of Control Activity” value is recorded as 108% with C2C12 Cells and 100% in the assay on H4-IIE Cells. Further, in the assay on 3T3-L1 Mouse Adipocytes, the “Percent of Isoproterenol Control Activity” value worked out at 98%.

Take 36 (MGLAAVCVCWVGWAGVVLM) [compound 36]: the “Percent of Control Activity” value in the assay with C2C12 Cells was determined as 106%; in the assay with H4-IIE Cells, 101%. Also, in the assay with 3T3-L1 Mouse Adipocytes, the “Percent of Isoproterenol Control Activity” value is recorded as 103%.

Take “37 (MGLLEWLLCWHLLGRIINWWA) [compound 37]”: the “Percent of Control Activity” value was 109% with C2C12 Cells and 103% with H4-IIE Cells. Moreover, the “Percent of Isoproterenol Control Activity” value in the assay with 3T3-L1 Mouse Adipocytes was found to be 106%.

Consider 38 (MGLWLVCWVL) [compound 38], for which the “Percent of Control Activity” value in the assay with C2C12 Cells is 108%; in the assay on H4-IIE Cells, 111%. Moreover, in the assay on 3T3-L1 Mouse Adipocytes, the “Percent of Isoproterenol Control Activity” value came out at 103%.

As to 39 (MGNIIRAWCGEGCL) [compound 39], the “Percent of Control Activity” value in the assay with C2C12 Cells is listed as 107%; with H4-IIE Cells it was 114%. The “Percent of Isoproterenol Control Activity” value in the assay on 3T3-L1 Mouse Adipocytes worked out at 99%.

For 40 (MGSPPPAGSKKVVL) [compound 40], the “Percent of Control Activity” value in the assay with C2C12 Cells and in the assay on H4-IIE Cells was 109% in each case. In addition, in the assay on 3T3-L1 Mouse Adipocytes, the “Percent of Isoproterenol Control Activity” value was determined as 95%.

Regarding 41 (MGSSRINPDPSPS) [compound 41], the “Percent of Control Activity” value in the assay on C2C12 Cells was found to be 109%; in the assay with H4-IIE Cells, 108%. In addition, the “Percent of Isoproterenol Control Activity” value in the assay on 3T3-L1 Mouse Adipocytes is 99%.

Take “42 (MGSSRLAVLCPPLHGQVNFTG) [compound 42]”: the “Percent of Control Activity” value with C2C12 Cells is given as 107%; in the assay on H4-IIE Cells, 112%. Moreover, the “Percent of Isoproterenol Control Activity” value with 3T3-L1 Mouse Adipocytes worked out at 106%.

For the substance 43 (MGVGMEWGLLLRRGR) [compound 43], the results for the “Percent of Control Activity” value in the assay with C2C12 Cells and in the assay with H4-IIE Cells were 101% and 112%, respectively. The “Percent of Isoproterenol Control Activity” value in the assay on 3T3-L1 Mouse Adipocytes came to 103%.

With 44 (MGVKFFTLST) [compound 44], the “Percent of Control Activity” value with C2C12 Cells and with H4-IIE Cells was 103% each time. Besides, the “Percent of Isoproterenol Control Activity” value in the assay with 3T3-L1 Mouse Adipocytes is recorded as 112%.

On to 45 (MHGELPWVVN) [compound 45], for which the “Percent of Control Activity” value in the assay with C2C12 Cells stood at 108%; in the assay on H4-IIE Cells, 107%. For the same substance, in the assay with 3T3-L1 Mouse Adipocytes, the “Percent of Isoproterenol Control Activity” value worked out at 98%.

For the substance 46 (MHHMKHPIIC) [compound 46], the “Percent of Control Activity” value in the assay with C2C12 Cells amounted to 104%; with H4-IIE Cells, 106%. Besides, the “Percent of Isoproterenol Control Activity” value in the assay on 3T3-L1 Mouse Adipocytes is 98%.

On to 47 (MHKHYYNKHPHHYNLP) [compound 47], for which the “Percent of Control Activity” value in the assay with C2C12 Cells was 103%; in the assay with H4-IIE Cells, 107%. In addition, the “Percent of Isoproterenol Control Activity” value with 3T3-L1 Mouse Adipocytes is listed as 96%.

48 (MHKRLSPIYYSHRYLPDKRL) [compound 48]: the figures for the “Percent of Control Activity” value in the assay on C2C12 Cells and in the assay with H4-IIE Cells were 104% and 101%, respectively. In the assay with 3T3-L1 Mouse Adipocytes, the “Percent of Isoproterenol Control Activity” value was 91%.

Regarding 49 (MHLVFSSGGYARDSIA) [compound 49], the “Percent of Control Activity” value in the assay on C2C12 Cells was found to be 108%; in the assay with H4-IIE Cells, 104%. The “Percent of Isoproterenol Control Activity” value in the assay with 3T3-L1 Mouse Adipocytes amounted to 87%.

The values are drawn from US20220332774A1, “THERAPEUTIC MITOCHONDRIAL PEPTIDES” (priority 2019, published 2022).
